Laboratory results from patent US20110059104A1, “Apo-2L receptor agonist and CPT-11 synergism” (Genentech, Inc., priority 2000, published 2011).
Entries after “also recorded” stand apart in the source; their conditions may differ. Where a SMILES comes first, the peptide text is derived from it. The star is where a group is joined. Cbz = O=C(OCc1ccccc1)*; CH2F = FC*

Experiments:
DR5 mRNA in HCT116 cells = experiment: bDNA assay of DR5 mRNA; assay type: cell-based, human
Procedure: The specificity of the probes was tested using RNA from in vitro transcription using recombinant DcR1, DcR2, DR4 and DR5 constructs.

[1] = tested on: COLO205 colon carcinoma cells; experiment: COLO205 colon carcinoma tumor growth in athymic nude mice (Example 1)
Procedure: The colon carcinoma cell line COLO205 (available from NCI) were grown and maintained according to the supplier's methods. Briefly, COLO205 cells were cultured in high glucose DMEM/F12 (50:50) media containing 10% fetal bovine serum and 2.0 mM L-Glutamine. […] CPT-11 (Camptosar®) was obtained from Pharmacia & Upjohn.

[2] = tested on: p21 protein in HUVEC cells; experiment: p21 protein western blot, HUVEC; assay type: cell-based, human; settings: normal HUVEC cells; 24 hours
Procedure: (§1) For Western blotting, cells were lysed in 20 mM Tris-HCl, pH 7.4 containing 10% glycerol, 1% Triton-x100, 150 mM NaCl and protease inhibitors (1 mM PMSF, 10 μg/ml Aprotinin, 10 μg/ml Leupeptin, Sigma). Aliquots of 50 μg of total protein per well were separated in a NuPAGE 4-12% Bis-Tris gel with NuPAGE MES SDS running buffer (Novex; San Diego, Calif.). The gels were transferred to […] pure nitrocellulose membrane (Bio-Rad) by semi-dry transfer cell (Bio-dad; Hercules, Calif.) with NuPAGE transfer buffer. The membranes were blocked with PBS containing 5% nonfat dry milk and incubated with primary antibodies against the proteins of interest followed by a horseradish […] secondary antibody (Amersham; Braunschweig, Germany). Immunoreactivo bands were visualized by the enhanced chemiluminescencesystem (Amersham; Braunschweig, Germany). The antibodies used in this study were: Anti-caspase-3 (Stratagene, #200021; La Jolla, Calif.), anti-p53 and anti-p21 (Oncogene, #0P43 and #0P64; Cambridge, Mass.), and anti-FLIP (#343002, Calbiochem, San Diego, Calif.). The antibodies were used at the concentrations recommended by the manufacturers.

[3] = tested on: p53 protein in HCT116 cells; experiment: p53 protein western blot, HCT116; assay type: cell-based, human; settings: HCT116 tumor cells; 2 and 24 hours; hydrochloride trihydrate
Procedure: as §1

[4] = tested on: HCT116 colon cancer cells; experiment: AlamarBlue cell viability assay; assay type: cell-based, human; settings: 24 hours; CPT-11 50 μg/ml, Apo2L/TRAIL 1 μg/ml
Procedure: (§2) An AlamarBlue™ assay was used to determine the cell viability. HCT116 colon cancer cells (˜10000 cells/well) were incubated overnight in 10% FBS RPMI 1640 medium in 96-well tissue culture plates. […] AlamarBlue™ was added to the wells for the last 6 hours of the 24 hours incubation time. Fluorescence was read using 96-well fluorometer plate reader with an excitation of 530 nm and emission of 590 nm (CytoFluor multi-well plate reader series 4000, PerSeptive Biosystems; Framingham, Mass.). In addition, the Molecular probes Live/Dead^R viability/cytotoxicity kit (Eugene, Oreg.) was used to evaluate the presence of live or dead cells. In these assays, Calcein-Am (4 μM) and ethidium homodimer-1 (2 μM) were added to treated cells 15 minutes before inspecting the cultures under an Axiovert 25 (Zeiss; Thornwood, N.Y.) fluorescence microscope equipped with fluorescein (calcein) and rhodamine (ethidium homodimer-1) filters.

HCT116 cells [5] = experiment: Flow cytometric cell cycle analysis, HCT116; assay type: cell-based, human
Procedure: Cell cycle analysis was performed via FACS analysis. HCT116 and HUVEC cells were incubated and treated as described in the figure legends. After the treatments, both floating cells in the medium aid live cells in the plate were collected. Cycle TEST PLUS DNA™ reagent kit (Beckon Dickinson; San Jose, Calif.) was used to stain cells according to manufacturer's instruction. The stained cells were analyzed in a FACS sorter (Becton Dickinson). The percentage of apoptotic cells containing a sub-G1 DNA content was quantitated using the CellQuest program. The percentage of live cells in each phase of cell cycle was quantitated using the ModFit LT program.

[6] = tested on: p21 protein in HCT116 cells; experiment: p21 protein western blot, HCT116; assay type: cell-based, human
Procedure: as §1

DR4 mRNA in HCT116 cells = experiment: bDNA assay of DR4 mRNA; assay type: cell-based, human
Excerpt: Total RNA was isolated using the RNA stat-60™ solution (Tel-Test, Inc (Friendsweed, Tex.) according to manufacturer's instruction. The Quantigene bDNA™ signal amplification kit (Chiron diagnostics; East Walpole, Mass.) was used to evaluate mRNA levels. The sequence of GAPDH probe sets was as recommended by the manufacturer. The DR4 probe sets were lined within the region of nucleic acid residues 9 to 582. There were 5 capture probes, 16 labeling probes and 8 blocking probes. The DR5 probe sets were lined within the region of nucleic acid residues 13-591. There were 5 capture probes, 17 labeling probes and 5 blocking probes for DR5. The specificity of the probes was tested using RNA from in vitro transcription using recombinant DcR1, DcR2, DR4 and DR5 constructs. Both DR4 and DR5 probe sets were highly specific for their own RNA transcripts. The signal from each probe sets was linear with the concentrations tested. bDNA assays were performed according to manufacturer's instructions using about 2 μg of total RNA/well.

[7] = tested on: p53 protein in HUVEC cells; experiment: p53 protein western blot, HUVEC; assay type: cell-based, human; settings: normal HUVEC cells; 2 and 24 hours; hydrochloride trihydrate
Procedure: as §1

HCT116 cells [8] = experiment: Live/Dead viability/cytotoxicity fluorescence microscopy (calcein-AM, ethidium homodimer-1); assay type: cell-based, human
Procedure: as §2

[9] = tested on: HCT116 colon cancer cells; experiment: Crystal violet cell survival assay; assay type: cell-based, human; settings: SN-38 0.05 microgram/ml; FIG. 15
Procedure: A crystal violet assay was also used. […] The medium was removed the following day, and the cells were incubated for 24 or 48 hours in the fresh medium containing the various agents noted above. At the end of each treatment, the medium was removed and 100 μl of 0.5% crystal violet solution was added to each well and incubated at room temperature for 10 minutes before washing with water. After the wells were dry, 100 μl of ethanol containing 0.5 N HCL was added to each well. The plates were then read at 540 nm using a 96-well plate reader (Spectra Max 340pc, Molecular Devices Corporation, Sunnyvale, Calif.).

[10] = 24 hours of treatment, without Z-VAD

## CCc1c2c(nc3ccc(OC(=O)N4CCC(N5CCCCC5)CC4)cc13)-c1cc3c(c(=O)n1C2)COC(=O)[C@]3(O)CC.Cl.O.O.O [CPT-11, (4S)-4,11-diethyl-4-hydroxy-9-[(4-piperidino-piperidino)carbonyloxyl]-1H-pyrano[3′,4′:6,7]indolizino [1,2-b]quinoline-3,14(4H,12H)dione hydrochloride trihydrate]
DR5 mRNA in HCT116 cells; 2 hours of treatment
  increase in DR5 mRNA expression compared with controls: not at 2 hours
DR5 mRNA in HCT116 cells; [10]
  increase in DR5 mRNA compared with controls: 2.5 fold
DR5 mRNA in HCT116 cells; time of exposure, hydrochloride trihydrate
  induction of DR5 expression by CPT-11 in vitro: can be observed after two hours exposure or incubation; also recorded: induced in vitro following exposure of cells to 50 microgram/ml CPT-11 for 6 hours
[1]; 9 mice per group
  animals in which tumor growth resumed several days after the treatment period: 9 animals
[1]; s.c. COLO205 tumors, Apo-2L 30 mg/kg/day days 0-4 and 7-11, CPT-11 80 mg/kg/day days 0, 4, 8, 34 days
  effect on tumor growth: suppressed tumor growth during the treatment period
[2]
  p21 protein level: large induction of p21 protein
[3]
  p53 protein level: strong and sustained induction of p53 expression; also recorded: increase in p53 protein levels
[4]
  effect on Apo2L/TRAIL-mediated apoptosis (number of live cells): enhanced Apo2L/TRAIL-mediated apoptosis in vitro
HCT116 cells [5]; 6 hours, control 30%
  cells in Go-G1 (cell cycle arrest): 76%
HCT116 cells [5]; 24 hours
  Go-G1 phase: clear reduction in Go-G1 phase
HCT116 cells [5]; 24 hours, control 19%
  cells in G2-M phase (arrest): 43%
HCT116 cells [5]; 24 hours, control cells 1%
  apoptosis (sub-G1 DNA content): 9%
[6]; CPT-11 incubation
  time profile of changes in p21 protein levels: increases as early as 4 hours of treatment
[6]; HCT116 tumor cells, 24 hours
  p21 protein level: large induction of p21 protein
DR4 mRNA in HCT116 cells; 2 hours of treatment
  increase in DR4 mRNA compared with controls: not at 2 hours
DR4 mRNA in HCT116 cells; [10]
  increase in DR4 mRNA compared with controls: 2.5 fold
[7]
  p53 protein level: strong and sustained induction of p53 expression; also recorded: increase in p53 protein levels
HCT116 cells [8]; 2 hours of treatment
  morphological changes / cell killing: did not show any morphological changes
HCT116 cells [8]; 24 hours of treatment
  cell death: a few dead cells were clearly present

## CCc1c2c(nc3ccc(O)cc13)-c1cc3c(c(=O)n1C2)COC(=O)[C@]3(O)CC [SN38]
[9]
  tumor cell death with SN38 instead of CPT-11 in combination and sequential treatments with Apo2L/TRAIL: Increased tumor cell death

## CC(NC(=O)C(NC(=O)OCc1ccccc1)C(C)C)C(=O)NC(CC(=O)O)C(=O)CF (stereo not drawn) [Z-VAD] (Cbz-Val-Ala-Asp-CH2F; configuration not given here)
DR5 mRNA in HCT116 cells; 24 hours, with Z-VAD
  increase in DR5 mRNA in the presence of Z-VAD: did not block
HCT116 cells [5]; HCT116
  effect of caspase inhibitor on Apo2L/TRAIL-mediated apoptosis: effectively blocked Apo2L/TRAIL-mediated apoptosis
DR4 mRNA in HCT116 cells; 24 hours, with Z-VAD
  increase in DR4 mRNA in the presence of Z-VAD: did not block
